For 16 molecules, DC50 and Dmax results are on record in patent publication US12570662B2, “Substituted pyrrolo[1,2-b]pyridazines as bifunctional degraders of interleukin-1 receptor-associated kinases” (Nurix Therapeutics, Inc., priority 2021, dated 2026).

The target of the test is T1, IRAK4 (Homo sapiens, UniProt Q9NWZ3).
T1 construct: C-terminal HiBiT-tagged Jurkat cells (polyclonal cell line or clone 8D5); endogenous in cells; host or cells: Jurkat cells (polyclonal cell line or clone 8D5), HiBiT-tagged
T1 sequence (Q9NWZ3 1-460): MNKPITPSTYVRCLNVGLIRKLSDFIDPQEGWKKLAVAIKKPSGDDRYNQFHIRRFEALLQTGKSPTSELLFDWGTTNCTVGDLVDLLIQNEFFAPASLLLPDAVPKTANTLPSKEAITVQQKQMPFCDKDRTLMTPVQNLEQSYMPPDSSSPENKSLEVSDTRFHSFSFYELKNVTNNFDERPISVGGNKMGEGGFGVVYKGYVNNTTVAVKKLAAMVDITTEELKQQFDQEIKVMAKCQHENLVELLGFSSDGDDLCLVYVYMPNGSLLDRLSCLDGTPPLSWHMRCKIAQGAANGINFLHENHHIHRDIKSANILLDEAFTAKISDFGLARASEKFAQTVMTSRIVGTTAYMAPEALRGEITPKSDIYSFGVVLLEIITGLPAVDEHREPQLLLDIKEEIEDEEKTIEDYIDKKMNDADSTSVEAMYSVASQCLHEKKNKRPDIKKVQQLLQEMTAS
Description: IRAK4 Degradation HiBit Assay. Conditions: C-terminal HiBiT-tagged Jurkat cells, 4 hrs incubation; for DC50: % IRAK4 remaining, four-parameter fit (IC50 used as DC50); for Dmax: from fit of % IRAK4 remaining, read-out: Dmax. Format: cell-based. The method, then:
Compound dilution series (11-point, 3.16-fold dilutions in DMSO, columns 1-11 and 12-22) at 500× the final required concentrations were prepared in Labcyte LDV 384-well plates (cat. no. LP-0200) using a Labcyte Echo 550 Liquid Handler. The 500× solutions ranged from 5 mM to 0.5 μM (final assay concentration range 10 μM to 0.1 nM). Using the Echo, the 500× solutions were stamped into white, 384-well assay plates (Corning, cat. no. 3570) at 60 nL/well. The following assay plate controls were also stamped at 60 nL/well: DMSO in wells E23-P23 (NC, Negative Control, maximum signal), 5 mM solution control compound al in wells A23-D23 and M24-P24 (AC, Active Control, minimum signal/background, 10 μM final assay concentration), control compound al dilution series in wells […] (12-point, 4-fold dilutions). C-terminal HiBiT-tagged Jurkat cells (polyclonal cell line or clone 8D5) were plated at 1×10^6 cells/mL, 30 μL/well (3×10^4 cells/well) in complete RPMI (10% FBS, 1% L-glutamine). Cells were incubated for 4 hrs at 32° C./6% CO2. Compound al has the following structure:
Following incubation, 30 μL of complete Nano-Glo HiBiT Lytic Detection Reagent (Nano-Glo HiBiT Lytic Buffer with 1:50 Nano-Glo HiBiT Lytic Substrate and 1:100 LgBiT Protein; Promega cat. no. N3040) was added. Cells were further incubated for 10 min at room temperature (RT). Luminescence units (LU) were read on an EnVision plate reader (Perkin Elmer, 0.1 sec per well). Percent IRAK4 remaining per sample was calculated as follows: […]
Using Graphpad Prism, % IRAK4 remaining values were plotted as a function of compound concentration. To determine DC50 and Dmax values, resulting curves were fit to the Prism curve-fitting equation “log (inhibitor) vs response-Variable slope (four parameters)” (reported best fit value IC50 used as DC50). Table 1 summarizes the biological data of Compounds of Examples 1-137 and 142-145 obtained from the assays described herein.
(In general: HiBiT is a short tag that completes a luciferase, so light tracks the accessible tagged protein.)

For orientation: DC50 means the concentration giving 50% degradation. For orientation: Dmax means the greatest extent of degradation seen. Turning to `CNc1cc(-c2ccc3cc(C#N)cnn23)ncc1-c1nnc(N2CCN(CC3CCN(c4ccc([C@@H]5CCC(=O)NC5=O)cn4)CC3)CC2)s1` (single isomer, unassigned) [Example 42], it took 16 nM to reach half-maximal degradation (DC50) and the Dmax turned out to be 115%.

`N#Cc1cnn2c(-c3cc(N[C@@H]4CCOC4)c(-c4nnc(N5CC6CCC(C5)N6CC5CCN(c6ccc(C7CCC(=O)NC7=O)cn6)CC5)s4)cn3)ccc2c1` (mixture of isomers) [Example 94, 7-[5-(5-{8-[(1-{5-[(3RS)-2,6-dioxopiperidin-3-yl]pyridin-2-yl}piperidin-4-yl)methyl]-3,8-diazabicyclo[3.2.1]octan-3-yl}-1,3,4-thiadiazol-2-yl)-4-{[(3R)-oxolan-3-yl]amino}pyridin-2-yl]pyrrolo[1,2-b]pyridazine-3-carbonitrile]: it took 10 nM to reach half-maximal degradation (DC50) and the Dmax was 114%.

As for `CCN(CC1CCN(c2ccc([C@@H]3CCC(=O)NC3=O)cn2)CC1)[C@H]1CC[C@H](c2nnc(-c3cnc(-c4ccc5cc(C#N)cnn45)cc3NC)s2)CC1` (racemic) [Example 36, 7-[4-(methylamino)-5-{5-[(1r,4r)-4-{[(1-{5-[(3RS)-2,6-dioxopiperidin-3-yl]pyridin-2-yl}piperidin-4-yl)methyl](ethyl)amino}cyclohexyl]-1,3,4-thiadiazol-2-yl}pyridin-2-yl]pyrrolo[1,2-b]pyridazine-3-carbonitrile], half-maximal degradation (DC50) was put at 20 nM and the Dmax amounted to 105%.

Consider `N#Cc1cnn2c(-c3cc(N[C@H]4CCOC4)c(-c4nnc(N5CCN(CC6CCN(c7ccc(C8CCC(=O)NC8=O)cn7)CC6)CC5)s4)cn3)ccc2c1` (mixture of isomers) [Example 92, 7-[5-(5-{4-[(1-{5-[(3RS)-2,6-dioxopiperidin-3-yl]pyridin-2-yl}piperidin-4-yl)methyl]piperazin-1-yl}-1,3,4-thiadiazol-2-yl)-4-{[(3S)-oxolan-3-yl]amino}pyridin-2-yl]pyrrolo[1,2-b]pyridazine-3-carbonitrile], for which half-maximal degradation (DC50) was put at 24 nM and the Dmax was 114%.

Take `CC(C)Nc1cc(-c2ccc3cc(C#N)cnn23)ncc1-c1nnc(N2CCN(CC3CCN(c4ccc(N5CCC(=O)NC5=O)cn4)CC3)CC2)s1` [Example 65, 7-(5-{5-[4-({1-[5-(2,4-dioxo-1,3-diazinan-1-yl)pyridin-2-yl]piperidin-4-yl}methyl)piperazin-1-yl]-1,3,4-thiadiazol-2-yl}-4-[(propan-2-yl)amino]pyridin-2-yl)pyrrolo[1,2-b]pyridazine-3-carbonitrile]: it took 43 nM to reach half-maximal degradation (DC50) and the Dmax turned out to be 110%.

Consider `CCN(C(=O)C1CCN(c2ccc([C@@H]3CCC(=O)NC3=O)cn2)CC1)[C@H]1CC[C@H](c2nnc(-c3cnc(-c4ccc5cc(C#N)cnn45)cc3NC)s2)CC1` (racemic) [Example 35, 1-{5-[(3RS)-2,6-dioxopiperidin-3-yl]pyridin-2-yl}-N-ethyl-N-[(1r,4r)-4-[5-(6-{3-cyanopyrrolo[1,2-b]pyridazin-7-yl}-4-(methylamino)pyridin-3-yl)-1,3,4-thiadiazol-2-yl]cyclohexyl]piperidine-4-carboxamide], for which the DC50 is 27 nM and the Dmax worked out at 105%.

With `N#Cc1cnn2c(-c3cc(NC4CCOCC4)c(-c4nnc(N5CC6CCC(C5)N6CC5CCN(c6ccc(N7CCC(=O)NC7=O)cc6)CC5)s4)cn3)ccc2c1` [Example 84, 7-(5-{5-[8-({1-[4-(2,4-dioxo-1,3-diazinan-1-yl)phenyl]piperidin-4-yl}methyl)-3,8-diazabicyclo[3.2.1]octan-3-yl]-1,3,4-thiadiazol-2-yl}-4-[(oxan-4-yl)amino]pyridin-2-yl)pyrrolo[1,2-b]pyridazine-3-carbonitrile], it took 24 nM to reach half-maximal degradation (DC50) and the Dmax turned out to be 77%.

As for `N#Cc1cnn2c(-c3cc(NC4CC4)c(-c4nnc(N5CCN(CC6CCN(c7ccc([C@@H]8CCC(=O)NC8=O)cc7)CC6)CC5)s4)cn3)ccc2c1` (single isomer, unassigned) [Example 120], the DC50 was 68 nM and the Dmax was 109%.

As for `N#Cc1cnn2c(-c3cc(N[C@H]4CCOC4)c(-c4nnc(N5CCN(CC6CCN(c7ccc([C@H]8CCC(=O)NC8=O)cn7)CC6)CC5)s4)cn3)ccc2c1` (single isomer, unassigned) [Example 144], the DC50 turned out to be 166 nM and the Dmax was determined as 87%.

With `N#Cc1cnn2c(-c3cc(NC4CCOCC4)c(-c4nnc(N5CC6CCC(C5)N6CC5CCN(c6ccc([C@H]7CCC(=O)NC7=O)cc6)CC5)s4)cn3)ccc2c1` (single isomer, unassigned) [Example 110], it took 50 nM to reach half-maximal degradation (DC50) and the Dmax was 50%.

As for `CNc1cc(-c2ccc3cc(C#N)cnn23)ncc1-c1nnc(C23CCC(NC(=O)C4CCN(c5ccc(C6CCC(=O)NC6=O)cn5)CC4)(CC2)CC3)s1` (racemic) [Example 47, rac-N-{4-[5-(6-{3-cyanopyrrolo[1,2-b]pyridazin-7-yl}-4-(methylamino)pyridin-3-yl)-1,3,4-thiadiazol-2-yl]bicyclo[2.2.2]octan-1-yl}-1-{5-[(3R)-2,6-dioxopiperidin-3-yl]pyridin-2-yl}piperidine-4-carboxamide], the DC50 came to 15 nM and the Dmax was found to be 111%.

`N#Cc1cnn2c(-c3cc(NC4(C#N)CC4)c(-c4nnc(N5CC6CCC(C5)N6CC5CCN(c6ccc([C@H]7CCC(=O)NC7=O)cn6)CC5)s4)cn3)ccc2c1` (racemic) [Example 103, rac-7-{4-[(1-cyanocyclopropyl)amino]-5-(5-{8-[(1-{5-[(3R)-2,6-dioxopiperidin-3-yl]pyridin-2-yl}piperidin-4-yl)methyl]-3,8-diazabicyclo[3.2.1]octan-3-yl}-1,3,4-thiadiazol-2-yl)pyridin-2-yl}pyrrolo[1,2-b]pyridazine-3-carbonitrile]: the DC50 turned out to be 12 nM and the Dmax was 106%.

For `N#Cc1cnn2c(-c3cc(NC4CC4)c(-c4nnc(N5CC6CCC(C5)N6CC5CCN(c6ccc([C@H]7CCC(=O)NC7=O)cc6)CC5)s4)cn3)ccc2c1` (racemic) [Example 99, rac-7-[4-(cyclopropylamino)-5-(5-{8-[(1-{4-[(3R)-2,6-dioxopiperidin-3-yl]phenyl}piperidin-4-yl)methyl]-3,8-diazabicyclo[3.2.1]octan-3-yl}-1,3,4-thiadiazol-2-yl)pyridin-2-yl]pyrrolo[1,2-b]pyridazine-3-carbonitrile], the DC50 was 56 nM and the Dmax amounted to 73%.

Consider `N#Cc1cnn2c(-c3cc(NC4CCOCC4)c(-c4nnc(N5CCN(CC6CCN(c7ccc([C@H]8CCC(=O)NC8=O)cn7)CC6)CC5)s4)cn3)ccc2c1` (single isomer, unassigned) [Example 30], for which it took 40 nM to reach half-maximal degradation (DC50) and the Dmax worked out at 104%.

On to `C[C@H](C#N)Nc1cc(-c2ccc3cc(C#N)cnn23)ncc1-c1nnc(N2CCN(CC3CCN(c4ccc(C5CCC(=O)NC5=O)cn4)CC3)CC2)s1` (mixture of isomers) [Example 75, 7-(4-{[(1R)-1-cyanoethyl]amino}-5-(5-{4-[(1-{5-[(3RS)-2,6-dioxopiperidin-3-yl]pyridin-2-yl}piperidin-4-yl)methyl]piperazin-1-yl}-1,3,4-thiadiazol-2-yl)pyridin-2-yl)pyrrolo[1,2-b]pyridazine-3-carbonitrile], for which it took 9 nM to reach half-maximal degradation (DC50) and the Dmax was 111%.

For `N#Cc1cnn2c(-c3cc(N[C@H]4CCOC4)c(-c4nnc(N5CCN(CC6CCN(c7ccc([C@H]8CCC(=O)NC8=O)cn7)CC6)CC5)s4)cn3)ccc2c1` (mixture of isomers) [Example 93, 7-[5-(5-{4-[(1-{5-[(3RS)-2,6-dioxopiperidin-3-yl]pyridin-2-yl}piperidin-4-yl)methyl]piperazin-1-yl}-1,3,4-thiadiazol-2-yl)-4-{[(3R)-oxolan-3-yl]amino}pyridin-2-yl]pyrrolo[1,2-b]pyridazine-3-carbonitrile], half-maximal degradation (DC50) was put at 16 nM and the Dmax is 115%.
